{"source": "patent US20110124586A1", "about": "“EXTERNAL PREPARATION FOR SKIN, AND WRINKLE-REPAIRING AGENT” (Kao Corporation, priority 2008, published 2011)", "key": {"[1]": {"experiment": "Moisture retention test (rate of decrease in water content of solution)", "format": "physicochemical", "details": "10 mass % in ion exchanged water; silica gel desiccator 25° C., RH 20%; vs water alone; FIG. 1", "procedure": "In accordance with the following test method, the rate of decrease in water content of lauryl thiogalactoside (compound of Production Example 2) solution was calculated to evaluate moisture-retaining property.\n0.5 g of a sample prepared by adjusting a concentration of lauryl thiogalactoside to 10 mass % with ion exchanged water was weighed in a container made of a resin to measure an initial weight (W0).\nNext, the sample was left to stand still in a silica gel desiccator (RT; 25° C., RH; 20%) to measure a time-dependent weight (Wt) of the sample.\nAfter the completion of the test, the sample was dried in a dryer (50° C.) for 2 hours and then left to stand still in a silica gel desiccator for 2 hours to measure a dry weight (Ws).\nThe same operation was conducted for a control sample prepared using water alone, and the rate of decrease in water content was calculated with the following equation.\nRate of decrease in water content (%)=Ht/H0×100(Ht=Wt−Ws, H0=W0−Ws)"}, "[2]": {"tested_on": "photoaged skin", "experiment": "Wrinkle reduction test on photoaged skin of hairless mice (UVA/UVB irradiation)", "format": "in vivo", "details": "photoaged hairless mouse skin", "description": "A wrinkle-reducing effect in the case of applying a sample containing a base alone or lauryl thiogalactoside (compound of Production Example 2) to photoaged skin was examined by the following test methods.\nTen hairless mice, which were 10 weeks old at the start of the test, were used for each group.\nPhotoaging was induced by irradiation with UVA and UVB once a day, five times a week for 8 weeks. An irradiation dose was increased every week from 20 J/cm^2 to 25 J/cm^2 and to 30 J/cm^2 for UVA, from 20 mJ/cm^2 to 30 mJ/cm^2 and to 40 mJ/cm^2 for UVB, and the maximum dose was irradiated in Week 3 or later.\nA wrinkle-reducing effect was evaluated by a wrinkle score and an epidermal thickness. The wrinkle score was determined in accordance with the method of Bissett et al. (Photochem. Photobiol. 46: 367-378, 1987). In other words, the size and depth of wrinkles were comprehensively evaluated with naked eyes and scored with the following four grades: 3, “large and deep wrinkles can be confirmed”; 2, “wrinkles can be confirmed”; 1, “no wrinkles can be confirmed”; and 0, “normal skin texture can be observed”. […]\nA sample containing lauryl thiogalactoside in an amount of 1% in a 50 vol % ethanol aqueous solution (base) was prepared (Example 1). […] Subsequently, after the completion of the application, the wrinkle score was determined. […]"}, "[3]": {"experiment": "Ordinary safety test"}}, "data": [{"compound": "CCCCCCCCCCCCSC1OC(CO)C(O)C(O)C1O", "note": "(stereo not shown) [lauryl thiogalactoside]", "values": [{"measurement": "Moisture-retaining property (rate of decrease in water content)", "setting": "[1]", "result": "did not suppress water volatilization in a dry state and exhibited an insufficient moisture-retaining action"}, {"measurement": "Effect on epidermal thickening (in words)", "setting": "[2]", "result": "had an effect of alleviating the epidermal thickening owing to photoaging"}, {"measurement": "Effect on wrinkles / wrinkle score (in words)", "setting": "[2]", "result": "effective for wrinkles induced by photoaging"}, {"measurement": "Result in an ordinary safety test", "setting": "[3]", "result": "does not have any problem in an ordinary safety test"}]}]}
